Several values for one entry are separate records, joined by “and”; a condition that tells them apart may be missing. Equal entries are not always repeated.
How the values were obtained:
[1] = biological target: T1, bovine α3β4 nicotinic acetylcholine receptors (Bos taurus, UniProt Q07263+Q8SPU6); test: Two-electrode voltage clamp of ACh-induced inward current (IACh), wild-type α3β4 nAChRs expressed in Xenopus oocytes; assay type: cell-based; conditions: for IC50: read-out: IC50 (half-maximal inhibitory response concentration)
T1 construct: host or cells: Xenopus laevis oocytes injected with in vitro transcribed mRNA
T1 sequence (Q07263 22-495): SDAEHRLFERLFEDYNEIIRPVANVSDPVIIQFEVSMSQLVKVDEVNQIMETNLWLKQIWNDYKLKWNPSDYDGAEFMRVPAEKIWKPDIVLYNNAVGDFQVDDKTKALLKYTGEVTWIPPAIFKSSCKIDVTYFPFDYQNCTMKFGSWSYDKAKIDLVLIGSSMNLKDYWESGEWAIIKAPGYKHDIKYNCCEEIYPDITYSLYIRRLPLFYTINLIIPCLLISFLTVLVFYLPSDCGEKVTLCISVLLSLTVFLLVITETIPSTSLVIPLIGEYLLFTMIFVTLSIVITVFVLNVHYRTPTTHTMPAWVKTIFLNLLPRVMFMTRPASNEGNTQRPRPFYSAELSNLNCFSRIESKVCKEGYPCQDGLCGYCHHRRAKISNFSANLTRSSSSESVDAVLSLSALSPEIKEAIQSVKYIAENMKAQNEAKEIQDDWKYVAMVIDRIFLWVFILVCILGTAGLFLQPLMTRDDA
T1 sequence (Q8SPU6 20-496): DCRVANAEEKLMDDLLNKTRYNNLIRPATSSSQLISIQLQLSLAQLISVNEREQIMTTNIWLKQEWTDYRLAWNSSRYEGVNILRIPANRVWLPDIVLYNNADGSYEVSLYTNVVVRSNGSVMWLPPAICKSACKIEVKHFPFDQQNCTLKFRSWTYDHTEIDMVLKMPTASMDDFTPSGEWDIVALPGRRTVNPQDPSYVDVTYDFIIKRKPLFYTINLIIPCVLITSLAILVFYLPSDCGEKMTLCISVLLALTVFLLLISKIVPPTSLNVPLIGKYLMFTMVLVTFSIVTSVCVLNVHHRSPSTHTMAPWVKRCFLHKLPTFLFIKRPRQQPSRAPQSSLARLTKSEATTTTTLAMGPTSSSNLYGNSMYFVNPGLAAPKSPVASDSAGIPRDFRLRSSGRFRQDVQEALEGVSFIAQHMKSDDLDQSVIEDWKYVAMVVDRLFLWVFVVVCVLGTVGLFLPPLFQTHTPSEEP
Procedure: (§1) Bovine cholinergic receptor nicotinic α3 subunit (gene accession number: 282702) and β4 subunit (gene accession number: 282181) were obtained from OriGene (Rockville, State Abbr. USA). All reagents, including ACh, MEC, and BA, were purchased from Sigma-Aldrich (St. Louis, MO, USA). All reagent stocks used in electrophysiological experiments were dissolved in dimethyl sulfoxide (DMSO) with the final concentration of DMSO not exceeding 0.01%. Frogs (Xenopus laevis) used in these experiments were obtained from the Korean Xenopus Resource Center for Research (KXRCR000001) and used according to appropriate standards.
(§2) All experiments were performed according to appropriate standards. After anesthetizing frogs on ice preoperatively, oocytes were extracted. Outer layers of oocytes were removed with OR-2 (Oocyte Ringer 2 solution) (82.5 mM NaCl, 2 mM KCl, 1 mM MgCl2, 5 mM HEPES, pH 7.4) containing collagenase II (2 mg/mL) in a room temperature shaker. Only stage V–VI oocytes were selected and used in this study. These oocytes were incubated in ND96 incubation buffer ([…] NaCl, 2 mM KCl, 1 mM MgCl2, 1.8 mM CaCl2, 5 mM HEPES, 2.5 mM sodium pyruvate, and […] gentamycin, pH 7.4) at 18 °C prior to mRNA injection.
(§3) Bovine α3β4 nAChRs cDNAs were restricted using appropriate restriction sites. Bovine α3β4 nAChRs mRNA was then subjected to in vitro transcription using a T7 polymerase kit (mMESSAGE mMACHINE T7 Transcription Kit; Thermo Fisher Scientific, Waltham, MA, USA) followed by injection into oocytes. A glass needle filled with mineral oil was used to install onto a nanoinjector (Drummond Scientific, Broomall, PA, USA). After incubating for 1–3 days, mRNA-injected oocytes were used for electrophysiology experiments.
Two-electrode voltage clamp (TEVC) experiments were performed using oocytes infused with α3β4 nAChR mRNA and cultured according to appropriate criteria. Each oocyte was penetrated with a microelectrode filled with 3M KCl at a resistance of 0.2 MΩ. All experiments were performed at room temperature using a two-electrode voltage clamp (OC-725C; Warner Instruments, Hamden, CT, USA) with a Digidata 1322A. The holding potential of the oocyte membrane potential was −80 mV. ACh and BA used in the experiment were diluted with ND96 buffer to appropriate concentrations. The perfusion rate was about 2 mL per minute. The induced-inward current was converted to digital data with the pClamp 10 software (Axon Instruments, Union City, CA, USA) for further analysis.
The current-voltage relationship was measured by changing the holding potential using a ramp protocol. Voltages ranging from −100 mV to +60 mV were applied to injected oocytes to measure the voltage ramp trace. The values were converted using Clampfit 9.0 (Molecular Devices, San Jose, CA, USA).
Concentration-response curve data were analyzed using SigmaPlot 10.0 software. Equation data were obtained using OriginPro 9.0 software (Origin, MA, USA) and fitted using the Hill equation y = Vmin + (Vmax − Vmin)*[x]^n/([IC50]^n + [x]^n), where Vmax and Vmin were the maximum and minimum current, respectively, x was the concentration of ACh or BA, n was the coefficient of interaction, and IC50 was the concentration of BA that produced half the maximum inhibitory effect. p-values < 0.05 were considered statistically significant.

[2] = biological target: T2, α3 (L257A) + Wild β4 nicotinic acetylcholine receptor (Bos taurus, UniProt Q07263+Q8SPU6, L278A); test: Two-electrode voltage clamp, single-mutant α3 (L257A) + wild β4 nAChR in Xenopus oocytes; assay type: cell-based, bovine; conditions: 100 μM ACh, holding potential −80 mV
T2 construct: host or cells: Xenopus laevis oocytes injected with mRNA; mutant made by site-directed mutagenesis
T2 sequence (Q07263 22-495 L278A): as the sequence (Q07263 22-495) above, with L257A counted along it
T2 sequence (Q8SPU6 20-496, stated change not applied): as the sequence (Q8SPU6 20-496) above
Procedure: as §1, §2, §3
(§4) Using α3 and β4 subunit cDNAs, point mutation was performed by PCR with Pfu DNA polymerase (Quikchange II Site-Directed Mutagenesis Kit). After designing a chimeric primer for mutation, optimal PCR conditions were determined. DpnI was added to remove methylated cDNA. […]
(§5) Concentration-response curve data were analyzed using SigmaPlot 10.0 software. […]

[3] = biological target: T3, Wild α3 + β4 (I263A) nicotinic acetylcholine receptor (Bos taurus, UniProt Q07263+Q8SPU6, I284A); test: Two-electrode voltage clamp, single-mutant wild α3 + β4 (I263A) nAChR in Xenopus oocytes; assay type: cell-based, bovine; conditions: 100 μM ACh, holding potential −80 mV
T3 construct: host or cells: Xenopus laevis oocytes injected with mRNA; mutant made by site-directed mutagenesis
T3 sequence (Q07263 22-495, stated change not applied): as the sequence (Q07263 22-495) above
T3 sequence (Q8SPU6 20-496 I284A): as the sequence (Q8SPU6 20-496) above, with I265A counted along it
Procedure: as §1, §2, §3, §4, §5

[4] = biological target: T4, α3 (L257A) + β4 (I263A) nicotinic acetylcholine receptor (Bos taurus, UniProt Q07263+Q8SPU6, I284A/L278A); test: Two-electrode voltage clamp, double-mutant α3 (L257A) + β4 (I263A) nAChR in Xenopus oocytes; assay type: cell-based, bovine; conditions: 100 μM ACh, holding potential −80 mV
T4 construct: host or cells: Xenopus laevis oocytes injected with mRNA; mutants made by site-directed mutagenesis
T4 sequence (Q07263 22-495 L278A): as the sequence (Q07263 22-495) above, with L257A counted along it
T4 sequence (Q8SPU6 20-496 I284A): as the sequence (Q8SPU6 20-496) above, with I265A counted along it
Procedure: as §1, §2, §3, §4, §5

[5] = wild-type, co-applied with 100 μM ACh, holding potential −80 mV

Compound	EC50 ([1]; in the absence of BA, holding potential −80 mV)	Emax ([1]; read-out: maximum efficacy of ACh-induced inward current (Emax))	decrease of efficacy of acetylcholine-induced inward current ([1]; 10 μM BA compared to 0 μM BA)	reversible potential (current-voltage relationship) ([1]; ACh 100 μM and BA co-administered, voltage ramp −100 to +60 mV)	reversibility of inhibition ([1]; ACh added again after BA co-administration)	inhibition percentage of nAChRs ([1]; BA 100 μM co-applied with 100 μM ACh, holding potential −80 mV)	manner of inhibition versus ACh ([1]; different ACh concentrations with fixed BA 3 μM or 10 μM)	Hill coefficient (nH) [1, 5]	Imax [1, 5]	IC50 [1, 5]	IC50 [2]	Imax [2]	nH (Hill coefficient) [2]	IC50 [3]	Imax [3]	nH (Hill coefficient) [3]	IC50 [4]	Imax [4]	nH (Hill coefficient) [4]	inhibition at 10 µM ([1]; MEC 10 μM added at the same time as 100 μM ACh, holding potential −80 mV, read-out: inhibition of IACh (acetylcholine-induced inward peak current))
CC(=O)OCC[N+](C)(C)C [ACh, acetylcholine]	9.4 ± 1.25 µM	101 ± 1.47%																		
C=C(C)[C@@H]1CC[C@]2(C(=O)O)CC[C@]3(C)[C@H](CC[C@@H]4[C@@]5(C)CC[C@H](O)C(C)(C)[C@@H]5CC[C@]43C)[C@@H]12 [BA, 3β, hydroxy-lup-20 (29) -en-28-oic acid]			about 60%	about −10 mV	reversible	89.2 ± 8.2%	non-competitive	0.9 ± 0.1	101.59 ± 5.98% and 101.5 ± 5.9%	12.9 µM and 12.8 µM	18.6 µM	48.9 ± 2.7%	1.6 ± 0.1	~13.4 µM and 13.4 µM	33.1 ± 3.3%	2.7 ± 1.0	~26.2 µM	7.4%	2	
CNC1(C)C2CCC(C2)C1(C)C (stereo not shown) [MEC, mecamylamine, reference compound]								1.5 ± 0.1		1.5 µM										~100%

Reference: article PMC8125762, “Molecular Regulation of Betulinic Acid on α3β4 Nicotinic Acetylcholine Receptors” (Molecules, 2021)
